Here are results for 28 molecules from ChEMBL document CHEMBL3393002, “Diaminopyrimidines, diaminopyridines and diaminopyridazines as histamine H4 receptor modulators” (Bioorg Med Chem Lett, 2015).

Broadly, the EC50 is the concentration needed to bring the measured effect to its halfway point. One may read the Ki as a dissociation constant, usually derived from enzyme kinetics or from competition with a known ligand.

Test [1] has as its target T1, Histamine H4 receptor (Homo sapiens, UniProt Q9H3N8). Description: Agonist activity at human recombinant histamine H4 receptor expressed in SK-N-MC cells assessed as effect on forskolin-stimulated cAMP-mediated reporter gene activity. The class given is functional, cell-based. (In a reporter assay the amount or activity of a reporter protein is the signal.)
Test [2] has as its target T1, Histamine H4 receptor. Description: Antagonist activity at human recombinant histamine H4 receptor expressed in SK-N-MC cells assessed as inhibition of forskolin-stimulated cAMP-mediated reporter gene activity. The class given is functional, cell-based. Particulars: read-out: pA2 (converted).
The target in test [3] is T1, Histamine H4 receptor. In words: Displacement of [3H]histamine from human recombinant histamine H4 receptor. For orientation: In a radioligand displacement assay an active substance lowers the binding of a labelled ligand.

T1 sequence (Q9H3N8 whole entry): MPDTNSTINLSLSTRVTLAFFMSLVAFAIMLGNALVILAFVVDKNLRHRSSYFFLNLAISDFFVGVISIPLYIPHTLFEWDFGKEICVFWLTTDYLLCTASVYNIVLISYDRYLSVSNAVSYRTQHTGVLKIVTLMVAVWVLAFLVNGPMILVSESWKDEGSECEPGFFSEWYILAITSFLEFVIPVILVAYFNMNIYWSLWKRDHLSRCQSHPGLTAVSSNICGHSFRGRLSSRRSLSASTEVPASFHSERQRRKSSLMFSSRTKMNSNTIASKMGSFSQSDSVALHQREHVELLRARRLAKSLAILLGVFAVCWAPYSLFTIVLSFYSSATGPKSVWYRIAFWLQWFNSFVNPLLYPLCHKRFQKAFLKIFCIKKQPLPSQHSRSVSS

Take `CC(C)CNc1nccc(N2CCN(C)CC2)n1`: in test [1], the EC50 is 84 nM.

Consider `CN[C@@H]1CCN(c2cnnc(NC3CCCC3)c2)C1`, for which the Kb in test [2] was 10 nM. Moreover, in test [3], the Ki was found to be 6 nM.

Turning to `CN1CCN(c2cnnc(NC3CC4CCC3C4)c2)CC1` (stereo unspecified), the Ki in test [3] amounted to 365 nM.

As for `CCCCNc1cc(N2CC[C@@H](NC)C2)ccn1`, in test [3], the Ki worked out at 7 nM. The EC50 in test [1] was determined as 48 nM.

In the case of `CCCCNc1cc(N2CCN(C)CC2)ccn1`, the inhibitory constant (Ki) in test [3] was determined as 176 nM.

Take `CN[C@H]1CCN(c2ccnc(NC(C)C)n2)C1`: the Ki in test [3] worked out at 118 nM.

For the molecule `CN[C@@H]1CCN(c2ccnc(-c3ccsc3)c2)C1`, the Ki in test [3] was determined as 216 nM.

With `CN[C@@H]1CCN(c2ccnc(NC(C)C)n2)C1`, in test [3], the Ki came to 8 nM. Also, the EC50 in test [1] is 25 nM.

In the case of `CN[C@H]1CCN(c2ccnc(NC3CC4CCC3C4)c2)C1` (stereo partly specified), the Ki in test [3] was determined as 6 nM. Besides, the EC50 in test [1] is greater than 10000 nM.

With `CN[C@@H]1CCN(c2ccnc(NC(C)C)c2)C1`, the EC50 in test [1] came to 3160 nM.

Turning to `CN1CCN(c2ccnc(-c3ccsc3)c2)CC1`, the Ki in test [3] stood at 21 nM.

`CN1CCN(c2ccnc(NC3CCCC3)n2)CC1`: the Ki in test [3] worked out at 63 nM. For the same molecule, the EC50 in test [1] was 75 nM.

With `CN[C@H]1CCN(c2cnnc(NC3CCCC3)c2)C1`, the Ki in test [3] is 240 nM.

In the case of `CC(C)Nc1nccc(N2CCN(C)CC2)n1`, in test [3], the inhibitory constant (Ki) worked out at 117 nM. The EC50 in test [1] is 112 nM.

Consider `CN[C@@H]1CCN(c2ccnc(NC3CC4CCC3C4)n2)C1` (stereo partly specified), for which the Kb in test [2] is 79.4 nM. Besides, the Ki in test [3] was found to be 0.8 nM. Moreover, the EC50 in test [1] came to 3160 nM.

For the molecule `CN[C@H]1CCN(c2cnnc(NCC(C)C)c2)C1`, the Ki in test [3] worked out at 389 nM.

For `CN[C@@H]1CCN(c2cnnc(NCC(C)C)c2)C1`, the Ki in test [3] turned out to be 55 nM. Also, the EC50 in test [1] was 3160 nM.

For `CCCCNc1nccc(N2CC[C@@H](NC)C2)n1`, the Ki in test [3] was found to be 3 nM. In addition, in test [1], the EC50 amounted to 4 nM.

With `CN[C@@H]1CCN(c2ccnc(NC3CC4CCC3C4)c2)C1` (stereo partly specified), the Kb in test [2] is 6.31 nM. In test [1], the EC50 was greater than 10000 nM.

With `CN[C@@H]1CCN(c2ccnc(N3CCCCC3)c2)C1`, the Ki in test [3] was found to be 97 nM.

As to `CCCCNc1nccc(N2CCN(C)CC2)n1`, the Ki in test [3] is 55 nM. The EC50 in test [1] was 91 nM.

As for `CC(C)c1cc(N2CC[C@@H](N)C2)nc(N)n1` [JNJ-39758979], the Ki in test [3] stood at 12 nM.

As for `CCCCNc1cc(N2CC[C@H](NC)C2)ccn1`, the Ki in test [3] stood at 109 nM.

Turning to `CN1CCN(c2ccnc(N3CCCCC3)c2)CC1`, in test [3], the Ki was found to be 142 nM.

On to `CN1CCN(c2ccnc(NC3CCCC3)c2)CC1`, for which the Ki in test [3] is 16 nM.

For the molecule `CN1CCN(c2ccnc(NC3CC4CCC3C4)n2)CC1` (stereo unspecified), the concentration for a half-maximal effect (EC50) in test [1] stood at 20 nM.

Consider `CN[C@H]1CCN(c2ccnc(NC3CC4CCC3C4)n2)C1` (stereo partly specified), for which the Ki in test [3] worked out at 8 nM. In addition, the 50% effective concentration (EC50) in test [1] was greater than 10000 nM.

On to `CC(C)CNc1cc(N2CCN(C)CC2)cnn1`, for which the Ki in test [3] was 10000 nM.
